{"source": "paper PMC12479633", "about": "“A Phase IIa, Single-Blind, Placebo-Controlled, Parallel-Group Study to Assess Safety, Tolerability, and Pharmacokinetics/Pharmacodynamics of Brensocatib in Adults with Cystic Fibrosis” (Clinical Pharmacokinetics, 2025)", "key": {"neutrophil elastase (NE) [1]": {"test_system": "neutrophil elastase (NE)", "assay": "Active NE in blood (white blood cell pellets) of adults with CF", "type": "in vivo, human", "conditions": "for NE, median % reduction relative to baseline: Blood, day 29", "experimental": "(§1) Blood PD samples were collected at screening; predose on days 1, 2, 14, 28, and 29; and at the follow-up visit (day 35). The samples were analyzed at an external service provider to determine the concentrations of active NE, PR3, and CatG in white blood cell pellets using validated enzymatic methods with quantification limits of 87.9 ng/mL for NE and PR3 and 70.3 ng/mL for CatG. The fit-for-purpose methods details were published internally and stored within Insmed’s document repository.\n(§2) If a participant experienced an intercurrent event, defined as use of antibiotics during an acute event that could influence NSP levels, the data were not included in the PD analysis. In assessing treatment-emergent adverse events (TEAEs), the “while-on-treatment” strategy was implemented, which encompassed the 28-day period following the final dose of study drug. With this strategy, data collected prior to the occurrence of the intercurrent event, that is, to discontinuation of brensocatib, were included in the analysis."}, "neutrophil elastase (NE) [2]": {"test_system": "neutrophil elastase (NE)", "assay": "NE activity in sputum of adults with CF", "type": "in vivo, human", "text": "as §2\n(§3) On the basis of the comparability of PK between participants with and without concomitant use of CFTR modulators, NSP activity (NE, CatG, PR3) in blood and sputum was analyzed using the combined data sets without the CFTR modulator stratum."}, "cathepsin G (CatG) [3]": {"test_system": "cathepsin G (CatG)", "assay": "Active CatG in blood (white blood cell pellets) of adults with CF", "type": "in vivo, human", "conditions": "for CatG, median % reduction relative to baseline: Blood, day 29", "experimental": "as §1, §2"}, "cathepsin G (CatG) [4]": {"test_system": "cathepsin G (CatG)", "assay": "CatG activity in sputum of adults with CF", "type": "in vivo, human", "text": "as §2, §3"}, "proteinase 3 (PR3)": {"test_system": "proteinase 3 (PR3)", "assay": "PR3 activity in sputum of adults with CF", "type": "in vivo, human", "text": "as §2, §3"}, "[5]": {"test_system": "NSP activity (NE, CatG, PR3)", "assay": "Exposure-response of NSP activity reduction (LOESS regression)", "type": "in vivo, human", "conditions": "particularly in blood", "experimental": "The NSP activity reduction reached a saturation point at approximately 25 mg, as indicated by the plateau of the associated PK measures. The sensitivity of reduction for brensocatib was greatest for CatG, followed by NE, and PR3 (Fig. 6)."}, "neutrophil elastase (NE) [6]": {"test_system": "neutrophil elastase (NE)", "set-up": "method as in earlier work", "conditions": "Healthy adults, cited from earlier work"}, "neutrophil elastase (NE) [7]": {"test_system": "neutrophil elastase (NE)", "set-up": "method as in PMID 32897034", "conditions": "NCFBE, cited from earlier work"}, "[8]": {"set-up": "method as in PMID 35411669, PMID 29484635", "conditions": "cited from earlier work"}, "CYP3A": {"test_system": "CYP3A", "set-up": "method as in PMID 35411669", "conditions": "cited from earlier work"}, "P-glycoprotein (P-gp)": {"test_system": "P-glycoprotein (P-gp)", "set-up": "method as in PMID 35411669", "conditions": "cited from earlier work"}, "[9]": {"test_system": "breast cancer resistance protein (BCRP)", "set-up": "method as in PMID 35411669", "conditions": "cited from earlier work"}, "[10]": {"set-up": "method as in PMID 40267423", "conditions": "NCFBE, ASPEN, cited from earlier work"}, "[11]": {"set-up": "method as in PMID 39574348", "conditions": "single dose, cited from earlier work"}}, "note": "Where “and” joins values, the source holds several entries; their conditions need not be identical. Identical values can stand only once. Like-named read-outs stand apart in the source and are kept apart here.", "data": [{"compound": "Cn1c(=O)oc2ccc(-c3ccc(C[C@@H](C#N)NC(=O)[C@@H]4CNCCCO4)cc3)cc21", "note": "[Brensocatib]", "values": [{"measurement": "NE, median % reduction relative to baseline", "setting": "neutrophil elastase (NE) [1]; 10 mg QD, n = 6", "result": "35.3 (n = 6) %"}, {"measurement": "NE, median % reduction relative to baseline", "setting": "neutrophil elastase (NE) [1]; 25 mg QD, n = 7", "result": "56.4 (n = 7) %"}, {"measurement": "NE, median % reduction relative to baseline", "setting": "neutrophil elastase (NE) [1]; 40 mg QD, n = 7", "result": "74.0 (n = 7) %"}, {"measurement": "median percent reduction of NE activity in blood", "setting": "neutrophil elastase (NE) [1]; over the dose range of 10–40 mg QD", "result": "35–74%"}, {"measurement": "NE, median % reduction relative to baseline", "setting": "neutrophil elastase (NE) [2]; 10 mg QD, day 29, n = 5", "result": "40.7 (n = 5) %"}, {"measurement": "NE, median % reduction relative to baseline", "setting": "neutrophil elastase (NE) [2]; 25 mg QD, day 29, n = 3", "result": "77.8 (n = 3) %"}, {"measurement": "NE, median % reduction relative to baseline", "setting": "neutrophil elastase (NE) [2]; 40 mg QD, day 29, n = 2", "result": "69.9 (n = 2) %"}, {"measurement": "CatG, median % reduction relative to baseline", "setting": "cathepsin G (CatG) [3]; 10 mg QD, n = 6", "result": "75.1 (n = 6) %"}, {"measurement": "CatG, median % reduction relative to baseline", "setting": "cathepsin G (CatG) [3]; 25 mg QD, n = 7", "result": "84.9 (n = 7) %"}, {"measurement": "CatG, median % reduction relative to baseline", "setting": "cathepsin G (CatG) [3]; 40 mg QD, n = 7", "result": "91.3 (n = 7) %"}, {"measurement": "median percent reduction of CatG activity in blood", "setting": "cathepsin G (CatG) [3]; in all doses of brensocatib", "result": "75–91%"}, {"measurement": "CatG, median % reduction relative to baseline", "setting": "cathepsin G (CatG) [4]; 10 mg QD, day 29, n = 5", "result": "51.3 (n = 5) %"}, {"measurement": "CatG, median % reduction relative to baseline", "setting": "cathepsin G (CatG) [4]; 25 mg QD, day 29, n = 3", "result": "0 (n = 3) %"}, {"measurement": "CatG, median % reduction relative to baseline", "setting": "cathepsin G (CatG) [4]; 40 mg QD, day 29, n = 2", "result": "0 (n = 2) %"}, {"measurement": "PR3, median % reduction relative to baseline", "setting": "proteinase 3 (PR3); 10 mg QD, day 29, n = 5", "result": "59.1 (n = 5) %"}, {"measurement": "PR3, median % reduction relative to baseline", "setting": "proteinase 3 (PR3); 25 mg QD, day 29, n = 3", "result": "67.1 (n = 3) %"}, {"measurement": "PR3, median % reduction relative to baseline", "setting": "proteinase 3 (PR3); 40 mg QD, day 29, n = 1", "result": "−17.0 (n = 1) %"}, {"measurement": "dose at which NSP activity reduction reached a saturation point", "setting": "[5]", "result": "approximately 25 mg"}, {"measurement": "Median % reduction of NE activity in the blood", "setting": "neutrophil elastase (NE) [6]; 10 mg, n = 6", "result": "34.8 (n = 6) %"}, {"measurement": "Median % reduction of NE activity in the blood", "setting": "neutrophil elastase (NE) [6]; 25 mg, n = 7", "result": "42.6 (n = 7) %"}, {"measurement": "Median % reduction of NE activity in the blood", "setting": "neutrophil elastase (NE) [6]; 40 mg, n = 7", "result": "55.1 (n = 7) %"}, {"measurement": "Median % reduction of NE activity in the blood", "setting": "neutrophil elastase (NE) [7]; 10 mg, n = 38", "result": "30.9% and 30.9 (n = 38) %"}, {"measurement": "Median % reduction of NE activity in the blood", "setting": "neutrophil elastase (NE) [7]; 25 mg, n = 45", "result": "66.5% and 66.5 (n = 45) %"}, {"measurement": "urinary excretion", "setting": "[8]; at steady state", "result": "approximately 20%"}, {"measurement": "elimination half-life", "setting": "[8]; single doses of 5–120 mg and QD dosing at 10–40 mg", "result": "20 to 30", "unit": "h"}, {"measurement": "steady state accumulation", "setting": "[8]; single or multiple dosing", "result": "approximately twofold"}, {"measurement": "substrate status", "setting": "CYP3A; CYP3A", "result": "substrate"}, {"measurement": "inhibition or induction of CYP3A", "setting": "CYP3A", "result": "not a clinically meaningful inhibitor or inducer"}, {"measurement": "substrate status", "setting": "P-glycoprotein (P-gp)", "result": "substrate"}, {"measurement": "substrate status", "setting": "[9]", "result": "substrate"}, {"measurement": "annualized rate of adjudicated pulmonary exacerbations compared with placebo", "setting": "[10]; 10 mg or 25 mg QD", "result": "significantly reduced"}, {"measurement": "lung function decline (FEV1) over 52 weeks compared with placebo", "setting": "[10]; 25 mg", "result": "significantly lower"}, {"measurement": "tolerability", "setting": "[11]; adults with varying degrees of renal impairment", "result": "well tolerated"}, {"measurement": "effect of renal impairment on brensocatib elimination and exposure", "setting": "[11]", "result": "not significantly affected"}]}]}
